Laboratory results from PubChem BioAssay (NCI).
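Tested at 5 concentrations; 48 h exposure; 96-well plates; endpoints linearly interpolated, else capped at highest concentration. GI50 = concentration required for 50% inhibition of growth. TGI denotes the concentration required for complete inhibition of growth.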

How the values were obtained:
Assay in all cases: inhibition of tumour cell growth, NCI panel, 48 h
OVCAR-8 ovarian = system: OVCAR-8 ovarian
BT-549 breast = system: BT-549 breast
SNB-19 CNS = system: SNB-19 CNS
HCT-116 colon = system: HCT-116 colon
HT29 colon = system: HT29 colon
SK-MEL-2 melanoma = system: SK-MEL-2 melanoma
U251 CNS = system: U251 CNS
OVCAR-3 ovarian = system: OVCAR-3 ovarian
NCI-H460 lung = system: NCI-H460 lung
MOLT-4 leukemia = system: MOLT-4 leukemia

SMILES | GI50 (OVCAR-8 ovarian) [µM] | TGI (OVCAR-8 ovarian) [µM] | GI50 (BT-549 breast) [µM] | TGI (BT-549 breast) [µM] | GI50 (SNB-19 CNS) [µM] | TGI (SNB-19 CNS) [µM] | GI50 (HCT-116 colon) [µM] | TGI (HCT-116 colon) [µM] | GI50 (HT29 colon) [µM] | TGI (HT29 colon) [µM] | GI50 (SK-MEL-2 melanoma) [µM] | TGI (SK-MEL-2 melanoma) [µM] | GI50 (U251 CNS) [µM] | TGI (U251 CNS) [µM] | GI50 (OVCAR-3 ovarian) [µM] | TGI (OVCAR-3 ovarian) [µM] | GI50 (NCI-H460 lung) [µM] | TGI (NCI-H460 lung) [µM] | GI50 (MOLT-4 leukemia) [µM] | TGI (MOLT-4 leukemia) [µM]
CCC(c1cccc(O)c1)C(CC)c1cccc(O)c1 (stereo not given) | 12.8 | 35.2 | 1.09 | 14.3 | 13.2 | 26 | 3.66 | 14.5 | 1.86 | 11.2 | 3.96 | 17.2 | 3.63 | 14.7 | 6.2 | 19 | 2.98 | 12.8 |  | 
COc1ccc(Cl)cc1Nc1nc(C(F)(F)F)ccc1C(=O)N/N=C/c1cc(OC)c(OC)c(OC)c1 | 1.59 | 4.89 | 1.2 | 3.68 | 2.44 | 19.5 | 2.41 | 7.66 | 3.73 | 13.2 | 1.76 | 5.35 | 1.75 | 15.1 | 0.449 | > 100 | 2.68 | 10.1 | 0.642 | 2.82
C/C(=N\NC(N)=S)c1nc2ccc(Cl)cc2[nH]1 | 2.57 | 15.5 | 3.57 | 14.3 | 3.93 | > 50 | 2.11 | 8.85 | 2.32 | 14 | 2.81 | 44.6 | 2.6 | 13 | 2.85 | 14.1 | 1.33 | 5.83 | 1.78 | > 50
Cn1c(=O)c2c(ncn2CN2CCN(Cn3cnc4c3c(=O)n(C)c(=O)n4C)CC2)n(C)c1=O |  | > 100 |  | > 100 |  | > 100 |  | 34.6 |  | > 100 |  | > 100 |  | > 100 |  | > 100 |  | 57.8 |  | 41.4
COc1ccc(Cn2c(Cl)c(/C=C3/C(=O)Nc4ccccc43)c3cc(OC)c(C)cc32)cc1 | 5.96 | > 100 | 17.2 | > 100 | 4.09 | > 100 | 3.77 | 39.1 | 4.1 | > 100 | 19.8 | > 100 | 6.05 | > 100 | 2.3 | 5.37 | 5.03 | > 100 | 5.55 | > 100
CSc1ccc(/C=C2\C=C(CC(=O)NCc3ccc(C(=O)c4ccccc4)cc3)c3cc(F)ccc32)cc1 | 0.0497 | 8.12 | 1.43 | 21.9 | 0.0705 | > 100 | 0.0367 | 2.76 | 0.0368 | 2.73 | 0.049 | 7.04 | 0.0379 | 2.33 | 0.0245 | 0.0643 | 0.0377 | 4.39 | 0.15 | > 36.7
OCC1OC(n2cnc3c(/C=C(/O)c4ccccc4)ncnc32)C(O)C1O (stereo not given) |  | > 100 |  | > 100 |  | > 100 |  | > 100 |  | > 100 |  | > 24.7 |  | > 100 |  | > 100 |  | 7.56 |  | > 100
COc1cc(Cn2c(-c3nonc3N)nc3ccccc32)ccc1C | 0.729 | > 100 | 0.463 | 49.4 | 0.626 | 45.5 | 0.46 | > 100 | 0.358 | 7.3 | 0.417 | 9.97 | 0.501 | 15.6 | 0.328 | 0.906 | 0.377 | > 100 | 0.692 | > 100
O=C1c2ccccc2-n2c1nc1ccccc1c2=O |  | > 82.4 |  | 45.4 |  | > 91.2 |  | 79.6 |  | 51.2 |  | 22.9 |  | 37.5 |  | 30.2 |  | 12 |  | > 100
Cc1cc(-c2nnc3n2CCCCC3)c(C)n1-c1ccc(Cl)c(Cl)c1 | 15.4 | 64.1 | 7.1 | 20.3 | 15.5 | 47.1 | 12.8 | 28.7 | 16 | 38.1 | 14.9 | 31 | 14.5 | 31.2 | 10.2 | 23.7 | 17.4 | 45.7 | 15 | 42.9
CC(C)Oc1cc(O)c2c(c1)OCC=C2CCC(=O)O |  | > 100 |  | > 100 |  | > 100 |  | 66.5 |  | 53.1 |  | > 100 |  | > 100 |  | > 100 |  | > 100 |  | 91
COC(=O)C1=C(C(=O)OC)SC(=C(Cl)C(=S)Sc2ccccc2N)S1 | 46.6 | > 100 | 2.03 | 8.6 | 32 | > 100 | 13.2 | 27.7 | 93.9 | > 100 | 14.2 | 43.6 | 18.5 | 35.4 | 28.1 | 64.6 | 19.6 | 35.5 | > 100 | > 100
N#C[C@@H]1C(n2ccc(N)nc2=O)O[C@H](CO)[C@H]1O (stereo not given in full) | 6 | > 100 | > 100 | > 100 | 10.3 | > 100 | 2.66 | > 100 | > 85 | > 100 | > 100 | > 100 | 42.7 | > 100 | > 100 | > 100 | 0.693 | > 100 | 0.107 | > 100
CC1CCN(CC(=O)N2c3ccccc3Sc3cc4ccccc4cc32)CC1 |  | > 100 |  | > 100 |  | > 100 |  | > 100 |  | > 100 |  | > 100 |  | > 100 |  | > 100 |  | > 100 |  | > 100
COC(=O)CCC1=C(C)/C(=C/c2[nH]c(-c3ccc[nH]3)cc2OC)N=C1C | 0.39 | 6.69 | 0.493 | 5.45 | 2.02 | 17.5 | 0.331 | 1.41 | 0.267 | 2.03 | 0.273 | 0.813 | 0.343 | 2.43 | 0.397 | 1.7 | 0.441 | 4.88 | 0.368 | 7.08
O=C1CCCN1CC#CCN1CCCC1 | > 100 | > 100 | > 100 | > 100 | > 100 | > 100 | > 100 | > 100 | > 100 | > 100 | > 100 | > 100 | > 100 | > 100 | > 100 | > 100 | > 100 | > 100 | > 100 | > 100
CCCCCCN(CCCCCC)CC(O)c1ccc2c3c(cccc13)CC2 (stereo not given) | 13.1 | 29.4 | 13.5 | 28.1 | 11.8 | 26.6 | 1.68 | 13.2 | 1.18 | 13.2 | 11 | 24.7 | 7.44 | 22.4 | 8.96 | 21.6 | 3.36 | 17 | 4.36 | 22.7
C=C1C(=O)O[C@H]2C[C@@]3(C)[C@H](O)CCC(=C)[C@@H]3[C@@H](OC(C)=O)[C@H]12 |  | 50.4 |  | 25 |  | 31.5 |  | 22.2 |  | 25.9 |  | 37.6 |  | > 71.3 |  | 26.9 |  | 25.7 |  | > 31
O=C1CC(=O)OC(c2ccc([N+](=O)[O-])cc2)O1 | 2.42 | 7.83 | 2 | 3.87 | 3.43 | 12.3 | 1.61 | 3.12 | 1.9 | 3.73 | 2.31 | 5.85 | 1.61 | 3.11 | 1.77 | 3.37 | 2.4 | 5.9 | 2.66 | 8.41
CC(C)[C@H]1C(=O)N[C@@H](CCCN=C(N)N)C(=O)NCC(=O)N[C@@H](CC(=O)O)C(=O)N[C@H](Cc2ccccc2)C(=O)N1C | 7.35 | > 100 | 1.6 | 3.13 | 2.66 | > 100 | 1.86 | > 33.4 | > 61.1 | > 100 | 1.35 | 5.78 | > 23.2 | > 100 | > 100 | > 100 | 31.6 | > 100 | > 100 | > 100
O=C1Nc2cccc3cc(NCC(O)CCl)cc1c23 (stereo not given) |  | > 100 |  | > 100 |  | > 100 |  | > 100 |  | > 100 |  | 69.9 |  | > 100 |  | > 100 |  | > 100 |  | 95.2
COc1ccc(C2CC(n3nnnc3-c3ccccc3)=NN2)cc1 (stereo not given) | 4.07 | 61.7 | 8.89 | 37.6 | 18.1 | > 100 | 4.87 | 22.3 | 2.82 | 17.9 | 11.6 | 32.7 | 9.88 | 35.9 | 3.05 | 12 | 2.84 | 13.7 | 5.99 | 42.6
Cn1cc(CNCC2CCN(c3ncc(C(=O)NO)cn3)CC2)c2ccccc21 | < 0.01 |  | 0.225 | 14.3 | 0.0251 | 0.9 | < 0.01 | 0.0328 | < 0.01 | 0.587 | < 0.0151 | 0.334 | 0.0133 | 0.128 | 0.0158 | 0.126 | 0.0131 | 11.5 | < 0.0135 | > 52.7
CCOc1c(Cl)cc(CNC(C)C(O)c2ccccc2)cc1OC (stereo not given) | 19.8 | 48 | 41.1 | > 100 | 32.7 | > 100 | 19.2 | 43.1 | 18.6 | 45.5 | 21.4 | 39 | 19.5 | 46.1 | 40.1 | > 100 | 18.3 | 35.9 | 26 | 85.7
COC(=O)CCCCCN=Cc1c(O)c(O)c(C(C)C)c2cc(C)c(-c3c(C)cc4c(C(C)C)c(O)c(O)c(C=NCCCCCC(=O)OC)c4c3O)c(O)c12 | 1.27 | > 32.5 | 3 | > 32.5 | 1.21 | > 32.5 | 1.23 | > 32.5 | 1.29 | > 32.5 | 2.2 | 28.7 | 1 | 5.6 | 1.27 | > 32.5 | 1.28 | 8.42 | 1.05 | 16.5
COc1cc2nc(-c3ccc(C(F)(F)F)cc3)cc(OCCCN3CCCCC3)c2cc1OC | 0.734 | 20.4 | 1.48 | 11.7 | 2.82 | 14.6 | 0.429 | 11.6 | 0.415 | 2.52 | 2.64 | 8.89 | 1.1 | 14.8 | 2.44 | 15.4 | 0.595 | 11.9 | 1.7 | 8.56
O=C(O)CSc1ncccc1[N+](=O)[O-] |  | > 100 |  | > 100 |  | > 100 |  | > 100 |  | > 100 |  | > 100 |  | > 100 |  | > 100 |  | > 100 |  | > 100
NC(=O)c1ccc(C2C3=C(CCCC3=O)OC3=C2C(=O)c2ccccc2C3=O)cc1 (stereo not given) |  |  | 0.642 | 2.03 | 1.38 | 2.87 | 0.26 | 0.76 | 1.77 | 5.58 | 0.576 | 2.06 | 0.358 | 1.22 | 0.276 | 0.852 | 0.458 | 2.05 | 0.361 | 1.4
